{
  "source": "patent US20070059773A1",
  "about": "“Identification of therapeutic compounds” (priority 2003, published 2007)",
  "key": {"human A1 receptor": {"target": "T1, human A1 receptor (Homo sapiens, UniProt P30542)", "T1 sequence (P30542 1-326)": "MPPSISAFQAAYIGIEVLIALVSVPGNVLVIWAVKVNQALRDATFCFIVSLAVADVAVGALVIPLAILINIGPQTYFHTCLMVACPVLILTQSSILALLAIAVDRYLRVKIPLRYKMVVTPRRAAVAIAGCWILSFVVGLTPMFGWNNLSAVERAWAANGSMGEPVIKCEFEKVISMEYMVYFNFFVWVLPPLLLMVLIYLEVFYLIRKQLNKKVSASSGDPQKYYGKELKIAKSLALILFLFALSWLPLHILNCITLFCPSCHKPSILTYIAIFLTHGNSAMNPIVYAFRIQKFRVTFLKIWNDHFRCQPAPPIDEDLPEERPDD", "test": "Displacement of [3H]-DPCPX from the human A1 receptor", "type": "binding", "conditions": "read-out: Ki high affinity sites", "excerpt": "Compounds that show a decrease in efficacy are likely to act as low efficacy partial agonists."}, "rat cortex A1 receptor": {"target": "T2, rat cortex A1 receptor (Rattus norvegicus, UniProt P25099)", "T2 construct": "from tissue; host or cells: rat cortex", "T2 sequence (P25099 1-326)": "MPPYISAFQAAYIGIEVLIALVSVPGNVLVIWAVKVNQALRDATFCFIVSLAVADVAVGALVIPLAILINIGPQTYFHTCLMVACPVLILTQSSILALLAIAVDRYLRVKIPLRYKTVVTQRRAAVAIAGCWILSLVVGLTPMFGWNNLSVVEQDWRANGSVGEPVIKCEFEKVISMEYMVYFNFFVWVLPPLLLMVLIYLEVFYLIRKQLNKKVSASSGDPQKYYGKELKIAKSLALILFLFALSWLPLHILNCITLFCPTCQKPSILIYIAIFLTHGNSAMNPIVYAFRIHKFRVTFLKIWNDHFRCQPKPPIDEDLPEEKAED", "test": "Displacement of 3H-DPCPX from the rat cortex A1 receptor", "type": "binding"}, "[1]": {"test_system": "isolated perfused superior mesenteric arterial bed of the rat", "conditions": "pH of the perfusate reduced to 6.8; cited from earlier work"}, "human A2A receptor": {"target": "T3, human A2A receptor (Homo sapiens, UniProt P29274)", "T3 construct": "expressed in transfected cells; host or cells: HEK293", "T3 sequence (P29274 whole entry)": "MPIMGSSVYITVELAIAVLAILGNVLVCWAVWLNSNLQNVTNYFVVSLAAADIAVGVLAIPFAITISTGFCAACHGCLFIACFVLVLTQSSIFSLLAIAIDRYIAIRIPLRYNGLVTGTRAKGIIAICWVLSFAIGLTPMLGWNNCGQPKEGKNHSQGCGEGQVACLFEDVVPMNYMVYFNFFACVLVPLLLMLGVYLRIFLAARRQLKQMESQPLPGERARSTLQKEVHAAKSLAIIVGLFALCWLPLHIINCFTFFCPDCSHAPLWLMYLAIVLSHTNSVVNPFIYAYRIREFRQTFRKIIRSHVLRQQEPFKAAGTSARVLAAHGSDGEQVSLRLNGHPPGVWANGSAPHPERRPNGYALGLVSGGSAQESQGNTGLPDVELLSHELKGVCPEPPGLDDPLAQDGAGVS", "test": "cAMP accumulation in HEK293 cells expressing the human A2A receptor", "type": "cell-based", "excerpt": "The human A2A receptor was expressed in HEK293 cells, and the ability of agonists to stimulate cAMP accumulation assessed in the presence of rolipram to inhibit phosphodiesterase enzymes."}, "[2]": {"test_system": "carrageenan (CGN) induced thermal hyperalgesia", "test": "Carrageenan induced thermal hyperalgesia (paw withdrawal latency)", "type": "in vivo", "conditions": "0.6 mg/kg, given with carrageenan; compared with indomethacin 3 mg/kg po", "description": "Carrageenan (2%, 10 microlitres) was administered into the right hind paw. A heat source was placed close to the treated and untreated hind paws, and the difference in the paw withdrawal latencies is shown. 2-methoxyadenosine was administered at the same time as carrageenan."}, "[3]": {"test": "Blood pressure and heart rate by implanted radiotelemetry", "type": "in vivo", "conditions": "0.624 mg/kg p.o., rat", "description": "An implantable radiotelemetry device was placed in the abdominal cavity of 6 rats per group. The pressure catheter of the device was inserted in the abdominal aorta and two electrodes tunnelised under the skin in a lead II position (left side of abdominal cavity/right shoulder). Individual rats were placed in their own cage on a radioreceptor (DSI) for data acquisition. The effect of 0.6 mg/kg 2 methoxyadenosine or vehicle (p.o.) on blood pressure was then assessed. The results are shown in FIG. 5: A: blood pressure; B: heart rate."}, "[4]": {"test_system": "thermal hyperalgesia caused by chronic constriction injury of the rat sciatic nerve", "test": "Chronic constriction injury model of neuropathic pain", "type": "in vivo", "conditions": "0.624 mg/kg p.o., compared with carbamazepine 100 mg/kg s.c.", "excerpt": "After approximately two weeks the rats developed thermal hyperalgesia in the operated leg as judged by the difference in paw withdrawal latencies of the right and left paws."}, "[5]": {"test_system": "carrageenan (CGN) induced inflammation", "test": "Carrageenan induced inflammation (paw volume by plethysmometry)", "type": "in vivo", "conditions": "62.4 and 624 μg/kg i.p.; compared with indomethacin 3 mg/kg po", "description": "Carrageenan (2%, 10 microlitres) was administered into the right hind paw, and the paw volume assessed by plethysomometry. 2-methoxyadenosine was administered at the same time as carrageenan."}, "[6]": {"test": "Plasma concentration after administration", "conditions": "rat, in vivo"}, "[7]": {"target": "T4, rat striatal A2A receptor (Rattus norvegicus, UniProt P30543)", "T4 sequence (P30543 whole entry)": "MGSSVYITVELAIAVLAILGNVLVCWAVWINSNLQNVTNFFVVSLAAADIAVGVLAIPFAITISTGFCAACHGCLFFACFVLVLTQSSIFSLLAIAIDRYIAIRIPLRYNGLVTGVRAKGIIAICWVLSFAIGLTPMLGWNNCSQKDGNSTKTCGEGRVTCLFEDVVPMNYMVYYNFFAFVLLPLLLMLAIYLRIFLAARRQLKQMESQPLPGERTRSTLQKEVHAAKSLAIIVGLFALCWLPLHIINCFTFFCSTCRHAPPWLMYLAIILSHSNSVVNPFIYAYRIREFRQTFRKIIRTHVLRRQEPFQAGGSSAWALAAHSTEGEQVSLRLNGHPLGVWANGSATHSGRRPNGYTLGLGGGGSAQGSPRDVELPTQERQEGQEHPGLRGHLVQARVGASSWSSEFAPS", "conditions": "for number of affinity states revealed: Tables 1 and 2; for number of affinity states revealed / effect of GTP on the high affinity states: lower pH; for high affinity states as proportion of the total number of binding sites: lower pH (5.5); for effect of GTP on the high affinity states: presence of GTP"}, "adenosine A2A receptor": {"target": "adenosine A2A receptor", "conditions": "cited from earlier work"}, "[8]": {"test_system": "carageenan-induced inflammation", "conditions": "rats, 20 mg/kg po; cited from earlier work"}, "[9]": {"conditions": "20 mg/kg po; cited from earlier work"}, "[10]": {"target": "T4, rat striatal A2A receptor", "test": "biochemical"}, "[11]": {"conditions": "pH 6.2, read-out: Ki High affinity"}, "[12]": {"conditions": "pH 6.2, read-out: Ki Low affinity"}, "[13]": {"conditions": "pH 7.4, read-out: Ki High affinity"}, "[14]": {"conditions": "pH 7.4, read-out: Ki Low affinity"}},
  "note": "Like-named read-outs stand apart in the source and are kept apart here.",
  "data": [
    {"smiles": "COc1nc(N)c2ncn([C@@H]3O[C@H](CO)C[C@H]3O)c2n1", "note": "[3′-deoxy-2-methoxyadenosine]", "values": [
      {"measurement": "Ki", "setting": "human A1 receptor; pH 6.2", "result": "405 ± 114", "unit": "nM"},
      {"measurement": "Ki", "setting": "human A1 receptor; pH 7.4", "result": "158 ± 85", "unit": "nM"}
    ]},
    {"smiles": "Nc1nc(Cl)nc2c1ncn2[C@@H]1O[C@H](CO)C[C@H]1O", "note": "[3′-deoxy-2-chloroadenosine]", "values": [
      {"measurement": "effect of GppNHp on the high affinity state", "setting": "rat cortex A1 receptor; both pH values (7.4 and 6.2)", "result": "abolished"},
      {"measurement": "Ki", "setting": "rat cortex A1 receptor; [11]", "result": 17, "unit": "nM"},
      {"measurement": "Ki", "setting": "rat cortex A1 receptor; [12]", "result": 13400, "unit": "nM"},
      {"measurement": "Ki", "setting": "rat cortex A1 receptor; [13]", "result": 227, "unit": "nM"},
      {"measurement": "Ki", "setting": "rat cortex A1 receptor; [14]", "result": 11500, "unit": "nM"}
    ]},
    {"smiles": "Nc1nc(Cl)nc2c1ncn2[C@@H]1O[C@H](CO)[C@@H](O)[C@H]1O", "note": "[2-chloroadenosine, reference compound]", "values": [
      {"measurement": "Ki", "setting": "rat cortex A1 receptor; [11]", "result": 3.7, "unit": "nM"},
      {"measurement": "Ki", "setting": "rat cortex A1 receptor; [12]", "result": 1660, "unit": "nM"},
      {"measurement": "Ki", "setting": "rat cortex A1 receptor; [13]", "result": 4.4, "unit": "nM"},
      {"measurement": "Ki", "setting": "rat cortex A1 receptor; [14]", "result": 1670, "unit": "nM"}
    ]},
    {"smiles": "Nc1ncnc2c1ncn2[C@@H]1O[C@H](CO)[C@@H](O)[C@H]1O", "note": "[adenosine]", "values": [
      {"measurement": "enhancement of dilator responses", "setting": "[1]", "result": 10, "unit": "fold"}
    ]},
    {"smiles": "COc1nc(N)c2ncn([C@@H]3O[C@H](CO)[C@@H](O)[C@H]3O)c2n1", "note": "[2-methoxyadenosine]", "values": [
      {"measurement": "efficacy at pH7.0 compared to pH7.4", "setting": "human A2A receptor; cAMP accumulation in the presence of rolipram", "result": "Increased"},
      {"measurement": "increase in efficacy at the adenosine A2A receptor", "setting": "human A2A receptor; pH7.0 compared to pH7.4, FIG. 3", "result": "approximately 100 fold"},
      {"measurement": "carrageenan induced thermal hyperalgesia", "setting": "[2]", "result": "inhibits"},
      {"measurement": "effect on blood pressure", "setting": "[3]", "result": "no Significant Effect"},
      {"measurement": "effect on heart rate", "setting": "[3]", "result": "no Significant Effect"},
      {"measurement": "thermal hyperalgesia, chronic constriction injury", "setting": "[4]", "result": "inhibits"},
      {"measurement": "carrageenan induced inflammation (paw volume)", "setting": "[5]", "result": "Inhibits"},
      {"measurement": "plasma concentration with profound anti-hyperalgesic and anti-inflammatory activity", "setting": "[6]", "result": "≤ 0.2", "unit": "µM"},
      {"measurement": "number of affinity states revealed", "setting": "[7]", "result": "two apparent affinity states"},
      {"measurement": "high affinity states as proportion of the total number of binding sites", "setting": "[7]", "result": "approximately 25%"},
      {"measurement": "Ki High affinity", "setting": "[7]; pH 7.4", "result": "High affinity not detectable"},
      {"measurement": "change of affinity as the pH is reduced", "setting": "[7]; pH from 7.4 to 7.0 to 6.8, FIG. 2", "result": "increases as the pH is reduced"},
      {"measurement": "effect of GTP on the high affinity states", "setting": "[7]", "result": "abolished"},
      {"measurement": "EC50", "setting": "adenosine A2A receptor; Daly et al. 1993, read-out: EC50 at the adenosine A2A receptor", "result": 3000, "unit": "nM"},
      {"measurement": "EC50 at adenosine receptors", "setting": "adenosine A2A receptor; measured at pH7.4", "result": 0.9, "unit": "µg/mL"},
      {"measurement": "EC50", "setting": "adenosine A2A receptor; measured at pH7.4, read-out: EC50 at adenosine receptors", "result": 3000, "unit": "nM"},
      {"measurement": "inhibition of carageenan-induced inflammation", "setting": "[8]", "result": 25, "unit": "%"},
      {"measurement": "reduction in heart rate", "setting": "[9]", "result": 25, "unit": "%"},
      {"measurement": "reduction in mean blood pressure", "setting": "[9]", "result": 41, "unit": "%"},
      {"measurement": "Ki", "setting": "[10]; Ki High affinity, pH 5.5", "result": 12.1, "unit": "nM"},
      {"measurement": "Ki", "setting": "[10]; Ki Low affinity, pH 5.5", "result": 1200, "unit": "nM"},
      {"measurement": "Ki", "setting": "[10]; Ki Low affinity, pH 7.4", "result": 2500, "unit": "nM"}
    ]},
    {"smiles": "CCOc1nc(N)c2ncn([C@@H]3O[C@H](CO)[C@@H](O)[C@H]3O)c2n1", "note": "[2-ethoxyadenosine]", "values": [
      {"measurement": "number of affinity states revealed", "setting": "[7]", "result": "two apparent affinity states"},
      {"measurement": "high affinity states as proportion of the total number of binding sites", "setting": "[7]", "result": "approximately 25%"},
      {"measurement": "effect of GTP on the high affinity states", "setting": "[7]", "result": "abolished"},
      {"measurement": "Ki", "setting": "[10]; Ki High affinity, pH 5.5", "result": 2.8, "unit": "nM"},
      {"measurement": "Ki", "setting": "[10]; Ki High affinity, pH 7.4", "result": 245, "unit": "nM"},
      {"measurement": "Ki", "setting": "[10]; Ki Low affinity, pH 5.5", "result": 1200, "unit": "nM"},
      {"measurement": "Ki", "setting": "[10]; Ki Low affinity, pH 7.4", "result": 6600, "unit": "nM"}
    ]},
    {"smiles": "Nc1nc(Nc2ccccc2)nc2c1ncn2[C@@H]1O[C@H](CO)[C@@H](O)[C@H]1O", "note": "[CV1808, 2-phenylamino-adenosine, reference compound]", "values": [
      {"measurement": "Ki", "setting": "[10]; Ki, pH5.5, one affinity state", "result": "35 ± 9", "unit": "nM"},
      {"measurement": "Ki", "setting": "[10]; Ki, pH 7.4, one affinity state", "result": "170 ± 20", "unit": "nM"}
    ]}
  ]
}
